Test results as given in patent EP0499831A2, “Combination of active agents comprising a sydnonimin derivate and a hirudin” (CASSELLA Aktiengesellschaft, priority 1991, dated 1992).

What was measured:
[1] = test system: Coronarthrombose; test: Coronary thrombosis by the method of Folts et al.: frequency of cyclic blood flow variations (CFV's) in the damaged, stenosed left descending coronary artery of anaesthetised pigs; format: in vivo, Hausschweinen
Protocol: Bei den tief narkotisierten Tieren wurde der Thorax eröffnet; die linke absteigende Coronararterie wurde freipräpariert und mit einem elektromagnetischen Blutströmungsmeßkopf versehen. Distal des Meßkopfes wurde das Coronargefäß durch kurzes (1 s) Quetschen mit einer Gefäßklemme geschädigt. Auf diese Stelle wurde ein Plastikkonstriktor (innerer Durchmesser 1.7 - 2.8 mm, Länge 2 mm) gesetzt, der das Gefäß stenosiert. […] Die Thromben wurden durch Bestimmung der Frequenz (Anzahl pro 60 min) der zyklischen Blutströmungsveränderungen quantifiziert. […] 0.1 mg/kg Molsidomin i.v. zusammen mit 0.1 mg/kg r-Hirudin i.v., gefolgt von 0.1 mg/kg·60 min r-Hirudin - Infusion.
Der Versuch wurde 1 Stunde nach Ende der Infusion bzw. 2 Stunden nach Bolusinjektion der Substanzen beendet. Die Frequenzen der zyklischen Blutströmungsveränderungen in der Stunde vor und in der ersten und zweiten Stunde nach Injektion der Prüfsubstanzen wurden für jede Versuchsgruppe gemittelt. Die mittleren Frequenzen der Zyklen vor und nach Substanzverabreichung wurden statistisch miteinander verglichen (Student-t-Test für verbundene Stichproben). Ein p - Wert von < 0.05 galt als signifikanter Unterschied.

[2] = Systolic and diastolic peripheral arterial blood pressure measured in the same animals; format: in vivo, Hausschweinen; settings: Molsidomin 0.1 mg/kg i.v. alone (Gruppe 1) or with r-Hirudin total 0.2 mg/kg i.v. (Gruppe 3)
Description: Diese Wirkung wurde in folgendem Test ermittelt: Bei männlichen, ca. 4 Monate alten Hausschweinen wurde eine Coronarthrombose nach der Methode von Folts et al (Circulation 1976, 54; 365 - 70) erzeugt. Bei den tief narkotisierten Tieren wurde der Thorax eröffnet; die linke absteigende Coronararterie wurde freipräpariert und mit einem elektromagnetischen Blutströmungsmeßkopf versehen. Distal des Meßkopfes wurde das Coronargefäß durch kurzes (1 s) Quetschen mit einer Gefäßklemme geschädigt. Auf diese Stelle wurde ein Plastikkonstriktor (innerer Durchmesser 1.7 - 2.8 mm, Länge 2 mm) gesetzt, der das Gefäß stenosiert. Diese Versuchsbedingungen führten zum Auftreten regelmäßiger zyklischer Blutströmungsveränderungen (CFV's), verursacht durch die wiederholte Bildung und Embolisierung von Thromben an der geschädigten stenosierten Stelle. Die Thromben wurden durch Bestimmung der Frequenz (Anzahl pro 60 min) der zyklischen Blutströmungsveränderungen quantifiziert. […]

## CCOC(=O)[N-]c1cn(N2CCOCC2)n[o+]1 [Molsidomin, N-Ethoxycarbonyl-3-morpholino-sydnonimin]
[1]; 1st hour after injection, Molsidomin 0.1 mg/kg i.v. bolus, r-Hirudin total 0.2 mg/kg (0.1 mg/kg i.v. bolus + i.v. infusion over 60 min), combination: both, n=6
  Anzahl thrombotischer Flowzyklen (n/60 min) 1. Stunde nach Substanzinjektion: 19 ± 3 n/60 min
[1]; baseline hour before substance injection, mean of group, n=6
  Anzahl thrombotischer Flowzyklen (n/60 min) 1. Stunde Vorphase: 16 ± 2 n/60 min
[1]; preliminary experiments (Vorversuche), single doses: Molsidomin 0.1 mg/kg i.v., r-Hirudin total 0.2 mg/kg i.v.
  antithrombotische Wirkung der Einzeldosierungen: gerade nicht antithrombotisch wirkend
[2]; decrease not significant
  Senkung des diastolischen Blutdrucks: 10 ± 5 mm Hg
[2]; maximal decrease, p < 0.05
  Senkung des systolischen Blutdrucks: 18 ± 5 mm Hg
